Results: ChEMBL document CHEMBL1201862, “PubChem BioAssay data set” (2004)
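The compound was tested at five concentrations on cells cultured in 96-well plates, with a 48-hour exposure period. GI50 is the concentration that inhibits growth by half.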 Calls of active or inactive are those of the source. Cut-off read from the data, not from the text of the source: active = GI50 up to about 1.1 µM and inactive = higher.

Assays:
Experiment in all cases: NCI-60 cell line screen, 48 h
SNB-78 = system: SNB-78
DLD-1 = system: DLD-1
DMS-114 = system: DMS-114
XF498 = system: XF498
RXF 631 = system: RXF 631
T47D = system: T47D
KM-20L2 = system: KM-20L2
LXFL 529 = system: LXFL 529
HOP-18 = system: HOP-18

| SMILES | GI50 (SNB-78) | GI50 (DMS-114) | GI50 (T47D) | also measured |
| --- | --- | --- | --- | --- |
| c1cc2c(cnc3cscc32)s1 | > 100 µM (inactive) | > 100 µM (inactive) | – | GI50 (DLD-1): > 100 µM (inactive); GI50 (XF498): 11 µM (inactive); GI50 (RXF 631): > 100 µM (inactive) |
| CC1(C(=O)O)CCC2(C)CCC3(C)C(=CC(=O)C4C5(C)CCC(O)C(C)(C)C5CCC43C)C2C1 (stereo not given) | – | – | 30.8 µM (inactive) | – |
| O=c1[nH]nc(Cc2ccccc2)[nH]1 | – | – | > 100 µM (inactive) | – |
| NCCCN1CCN(CC(=O)O)CCN(CCCN)CCN(CC(=O)O)CC1 | – | – | > 100 µM (inactive) | – |
| COc1cc(C(C)c2cc3c(cc2OCCCCOc2cc4c(cc2C(C)c2cc(OC)c(OC)c(OC)c2)OCO4)OCO3)cc(OC)c1OC (stereo not given) | 20.1 µM (inactive) | 15.9 µM (inactive) | – | GI50 (DLD-1): 35.6 µM (inactive); GI50 (KM-20L2): > 100 µM (inactive); GI50 (XF498): 27.6 µM (inactive); GI50 (RXF 631): 39.7 µM (inactive); GI50 (LXFL 529): 33.3 µM (inactive) |
| O=c1oc2c/c(=C\c3ccc([N+](=O)[O-])cc3)c(=O)c3cccc1c3-2 | – | – | > 100 µM (inactive) | – |
| N#Cc1cccc(/C=N/C23CC4CC(CC(C4)C2)C3)c1 | > 100 µM (inactive) | > 100 µM (inactive) | – | GI50 (KM-20L2): > 100 µM (inactive) |
| CCOC(=O)C1=C(C)N(NC(=O)c2ccccc2)C2(O)CCCC12C(=O)OCC (stereo not given) | – | > 100 µM (inactive) | – | GI50 (KM-20L2): > 100 µM (inactive); GI50 (XF498): 55 µM (inactive); GI50 (RXF 631): > 100 µM (inactive); GI50 (LXFL 529): > 100 µM (inactive) |
| CCCCCCCCSC1=C(Cl)C(=O)C(OC)=C(OC)C1=O | – | – | 5.08 µM (inactive) | – |
| O=C1CCCn2c(nc3ccccc32)N1 | – | – | > 100 µM (inactive) | – |
| COc1ccc(N2C=Nn3c(nc4sc(C)c(C)c4c3=O)C2)cc1 | – | – | > 100 µM (inactive) | – |
| COc1cc(/C=C2\CCC(C)(CN(C)C)C2=O)cc(OC)c1OC (stereo not given) | > 44.7 µM (inactive) | 99.5 µM (inactive) | – | GI50 (DLD-1): > 89.1 µM (inactive); GI50 (KM-20L2): > 64.9 µM (inactive); GI50 (XF498): > 100 µM (inactive); GI50 (HOP-18): > 100 µM (inactive); GI50 (LXFL 529): > 100 µM (inactive) |
| CCOC(=O)c1cnc2oc(-c3ccc(OC)cc3)nn2c1=O | > 100 µM (inactive) | > 100 µM (inactive) | – | GI50 (KM-20L2): > 100 µM (inactive); GI50 (LXFL 529): > 100 µM (inactive) |
| OCCc1ccsc1-c1sc(-c2cc(CCO)c(-c3sc(-c4cc(CCO)c(-c5sccc5CCO)s4)cc3CCO)s2)cc1CCO | – | – | 1.3 µM (inactive) | – |
| Cc1ccc(NS(=O)(=O)c2cc(C(C)(C)C)ccc2OCCOCCOCCOc2ccc(C(C)(C)C)cc2S(=O)(=O)Nc2ccc(C)cc2)cc1 | > 100 µM (inactive) | > 100 µM (inactive) | – | GI50 (DLD-1): > 100 µM (inactive); GI50 (HOP-18): > 100 µM (inactive) |
| O=C(CCN1CCOCC1)c1ccc(Oc2ccc(F)cc2)cc1 | – | – | 18.9 µM (inactive) | – |
| COC1=CC23C=CC1[C@@H](c1ccccc1)C2=C(C)C(=O)N3C(=O)NC1CCCCC1 (stereo not given in full) | 26.4 µM (inactive) | – | – | GI50 (KM-20L2): 22.2 µM (inactive) |

| SMILES | GI50 (SNB-78) | GI50 (DMS-114) | GI50 (T47D) | also measured |
| --- | --- | --- | --- | --- |
| CON1C(=O)C2(CCCCC2)C(=O)C12C=CC(C)CC2 (stereo not given) | > 100 µM (inactive) | 46.7 µM (inactive) | – | GI50 (KM-20L2): > 100 µM (inactive); GI50 (XF498): > 100 µM (inactive); GI50 (RXF 631): > 100 µM (inactive); GI50 (LXFL 529): > 100 µM (inactive) |
| CC1=NN(C(=O)Cc2ccccc2)C(=O)/C1=C\C=C\c1ccccc1 | 83.6 µM (inactive) | – | – | GI50 (DLD-1): > 100 µM (inactive); GI50 (XF498): > 100 µM (inactive); GI50 (HOP-18): 14.8 µM (inactive) |
| CS(=O)(=O)c1ccc(C(=O)O[C@@H]2C(=O)N3CC[C@H]4OC(O)[C@@H]2[C@H]43)cc1 (stereo not given in full) | – | – | > 100 µM (inactive) | – |
| Cn1c(=O)cc(NNc2ccc(Cl)c(Cl)c2)[nH]c1=O | – | – | 4.99 µM (inactive) | – |
| CCOC(=O)C1=COC(C)(c2ccccc2)CC1=O (stereo not given) | – | – | > 100 µM (inactive) | – |
| O=C(Nc1ccccc1)N(C1=NCC(CI)S1)c1ccc(F)cc1F (stereo not given) | – | – | 15.3 µM (inactive) | – |
| CC[S+]1C2=C(CC(C)(C)CC2=O)[N-]c2ccccc21 (stereo not given) | – | – | > 100 µM (inactive) | – |
| O=C1c2ccccc2-c2nc(-c3ccccc3)cc3c2c1nc1ccccc13 | – | – | 21.5 µM (inactive) | – |
| CCOC(=O)c1c(-c2ccc(Br)cc2)ccn1C | – | – | > 10 µM (inactive) | – |
| CCOC(=O)CCC(C(=O)OCC)n1nnc2ccc(Nc3c(C)[n+]([O-])c4ccc(Cl)cc4[n+]3[O-])cc21 (stereo not given) | – | – | 34 µM (inactive) | – |
| CC(C)C1OCC(CO)CO1 (stereo not given) | – | – | > 100 µM (inactive) | – |
| CC(C)(C)C1CCC2(CC1)c1[nH]c3ccccc3c1C1(CCC(C(C)(C)C)CC1)c1[nH]c3ccccc3c12 (stereo not given) | > 100 µM (inactive) | 25.9 µM (inactive) | – | GI50 (DLD-1): > 100 µM (inactive); GI50 (KM-20L2): > 100 µM (inactive); GI50 (XF498): > 100 µM (inactive); GI50 (HOP-18): > 100 µM (inactive); GI50 (LXFL 529): > 100 µM (inactive) |
| CC(C)=C1C(=O)C[C@]2(C)C[C@H]3/C(=C(/C)CCC12)CC[C@@]3(C)O (stereo not given in full) | – | – | 46.9 µM (inactive) | – |
| Cc1cn(CCC(N)C(=O)O)c(=O)[nH]c1=O (stereo not given) | – | – | > 100 µM (inactive) | – |
| C=CCOCn1ccc(NC(=O)c2ccccc2)nc1=O | – | – | > 100 µM (inactive) | – |
| NC(=O)N/N=C(\C(=O)C(=O)Nc1ccc(Cl)c(C(F)(F)F)c1)c1nc2ccc(C(=O)c3ccccc3)cc2nc1O | 76.6 µM (inactive) | 68.4 µM (inactive) | – | GI50 (KM-20L2): > 100 µM (inactive); GI50 (XF498): 9.62 µM (inactive); GI50 (HOP-18): 23.7 µM (inactive) |
